Results reported in paper PMC8589421, “Impact of Type II LRRK2 inhibitors on signaling and mitophagy” (Biochemical Journal, 2021).

Key:
[1] = system: Rab10 phosphorylation, LRRK2[A2016T]; experiment: Rab10 Thr73 phospho-immunoblot in inhibitor resistant LRRK2[A2016T] knock-in MEFs; type: cell-based, mouse; conditions: 2 h, up to 3 µM
Procedure: Wild-type and homozygous LRRK2 [R1441C] (Jax, stock number: 009346), LRRK2[G2019S] Taconic, (model 13940) and LRRK2 [A2016T] (Jax, stock number: 021828)[7] knock-in MEF cells were isolated from littermate-matched mouse embryos on a C57BL/6J background at day E12.5 as described previously. MEFs were grown in Dulbecco's modified Eagle medium (DMEM GIBCO, #11960-085) containing 10% (by vol) fetal bovine serum (FBS), 2 mM L-glutamine, 100 U/ml penicillin, and […] streptomycin supplemented with non-essential amino acids and 1 mM sodium pyruvate. Human embryonic kidney 293 (HEK293) (#ATCC CRL-1573) and HeLa (#ATCC CCL-2) cells were purchased from American Tissue Culture Collection (ATCC) and cultured in DMEM containing 10% (by vol) FBS, 2 mM L-glutamine, 100 U/ml penicillin, and […] streptomycin. All cells were grown at 37°C, 5% (by vol) CO2 in a humidified atmosphere and regularly tested for mycoplasma contamination.
Inhibitors were dissolved in dimethyl sulfoxide (DMSO) (Sigma, #D2650). The inhibitors were diluted 1000× into cell medium. The equivalent volume of DMSO was added to the minus inhibitor controls. Experiments were performed in six-well plates, 10 cm dishes or 15 cm dishes depending on the amount of cell extract required.
Cells were lysed in an ice-cold lysis buffer containing 50 mM Tris–HCl, pH 7.4, 1% (by vol) Triton X-100, 10% (by vol) glycerol, 150 mM NaCl, 1 mM sodium orthovanadate, 50 mM NaF, 10 mM 2-glycerophosphate, 5 mM sodium pyrophosphate, 1 µg/ml microcystin-LR, and cOmplete EDTA-free protease inhibitor cocktail (Roche, #11836170001). Lysates were incubated on ice for 30 min and clarified by centrifugation at 20 800×g at 4°C for 20 min. Supernatants were quantified by Bradford assay (Bio-Rad Protein Assay Dye Reagent Concentrate #5000006) and samples prepared in 1× lithium dodecyl sulfate sample buffer final concentration (NuPage LDS Sample buffer 4× Invitrogen, #NP0008). When not deployed immediately, lysates were snap-frozen in liquid nitrogen and stored at −80°C until use. […]

LRRK2 14-3-3 binding = system: T1, LRRK2 14-3-3 binding; experiment: Analysis of 14-3-3 binding in HEK293 cells overexpressing wild-type LRRK2; type: cell-based, human; conditions: 5 μM GZD-824 for 4 h, 1 μM GSK3357679A
T1 construct: host or cells: HEK293
Procedure: This was undertaken as described previously. Briefly, wild-type FLAG-LRRK2 was transiently expressed in HEK293 cells with HA-Rab29. Twenty-four hours post-transfection cells were lysed with lysis buffer and snap frozen. LRRK2 was immunoprecipitated from 4 mg of lysate using 20 μl anti-FLAG-M2 agarose beads (Sigma, #A2220) for 2 h in rotation at +4°C. Immunoprecipitates were washed once with lysis buffer supplemented with 0.5% (by vol) Nonidet P-40 (instead of Triton X-100) and 0.5 M NaCl followed by two washes. Samples were eluted in 2× LDS sample buffer (20 µl per 10 µl of resin) and heated at 70°C for 10 min. After centrifugation through 0.22 µm Spin X filter, the eluted protein was subjected to immunoblotting with the indicated antibodies. An amount of 10 μl of the final reaction mixture was needed for the detection of binding of endogenous 14-3-3 and 1 µl for detection of LRRK2.

[2] = system: Rab29 mediated relocalization of LRRK2 to the Golgi apparatus; experiment: Rab29 mediated recruitment of LRRK2 to the Golgi, immunofluorescence in HeLa cells; type: cell-based, human; conditions: 5 μM GZD-824 or 1 μM GSK3357679A for 4 h
Procedure: HeLa cells were seeded on coverslips and transfected with the plasmid reported in each image 24 h before fixation. Following the treatments with the inhibitors described in figure legends, cells were washed twice in DPBS and fixed with 3.7% Paraformaldehyde pH 7.3 (Agar scientific, #R1026), 200 mM HEPES, for 20 min. Cells were then washed twice with DMEM, 20 mM HEPES, and then incubated for 10 min with DMEM, 10 mM HEPES. After two washes in DPBS, fixed cells were permeabilized with 0.2% (by vol) NP-40 in DPBS for 10 min. Cells were blocked using 1% (by mass) BSA in DPBS, then incubated for 1 h with primary antibodies diluted in 1% (by mass) BSA in DPBS, washed three times in 0.2% (by mass) BSA in DPBS, and incubated for 1 h with secondary antibodies. The coverslips were washed three times with 0.2% (by mass) BSA in PBS. Coverslips were washed once more in double distilled water and mounted on slides (VWR, #631-0909) using ProLong™ Diamond Antifade Mountant (ThermoFisher, #P36961). For localization of the Golgi compartment, Golgin-97 was stained with rabbit anti-GM97 (CST, #D8P2K) and visualized with goat anti-rabbit conjugated to Alexa Fluor 405 (Life Technologies, #P10994). HA-Rab29 was stained with mouse anti-HA (Abcam, clone HA.C5 #ab18181) and visualized with goat anti-mouse conjugated to Alexa Fluor 594 (Life Technologies, #A-11032). […]

Compound: Cc1ccc(C(=O)Nc2ccc(CN3CCN(C)CC3)c(C(F)(F)F)c2)cc1C#Cc1cnc2[nH]ncc2c1 [GZD-824]
- effect of A2016T mutation on inhibition of Rab10 phosphorylation [1]: markedly blocked
- impact on 14-3-3 binding to LRRK2 (LRRK2 14-3-3 binding): no significant impact
- impact on Rab29 mediated recruitment of LRRK2 to the Golgi [2]: did not significantly impact
